Measurements reported in paper PMC10333884, “Large‐scale phosphomimetic screening identifies phospho‐modulated motif‐based protein interactions” (Molecular Systems Biology, 2023).
Non-standard residues stand in square brackets, D forms with d. Residues, ends and D or L forms follow the SMILES beside them. pS = N[C@@H](COP(=O)(O)O)C(=O)O

Legend:
Assay type in all cases: binding
[1] = target: T1, KPNA4 ARM minor (Homo sapiens, UniProt O00629); assay: FP displacement assay, KPNA4 ARM minor pocket; conditions: minor pocket probe FITC-NCOR2 5 nM, 50 mM sodium phosphate pH 7.4, room temperature, at least three technical replicates, read-out: KD values ± SEM
T1 construct: 60-487; GST (cleaved yes); made in house; host or cells: Escherichia coli BL21-Gold(DE3)
T1 sequence (O00629 60-487): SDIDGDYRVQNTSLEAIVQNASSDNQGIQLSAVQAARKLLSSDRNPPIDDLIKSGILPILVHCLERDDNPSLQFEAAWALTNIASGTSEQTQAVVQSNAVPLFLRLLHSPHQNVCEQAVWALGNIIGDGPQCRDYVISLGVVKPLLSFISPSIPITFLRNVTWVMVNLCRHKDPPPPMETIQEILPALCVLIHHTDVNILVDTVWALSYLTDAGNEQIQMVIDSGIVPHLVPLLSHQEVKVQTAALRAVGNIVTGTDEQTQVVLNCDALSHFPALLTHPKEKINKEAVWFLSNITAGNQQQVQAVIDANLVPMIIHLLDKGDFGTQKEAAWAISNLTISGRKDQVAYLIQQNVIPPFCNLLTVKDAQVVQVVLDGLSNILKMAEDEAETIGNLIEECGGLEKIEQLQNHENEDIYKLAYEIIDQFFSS
Description: (§1) FP experiments were performed as described previously (Kliche et al, [2021]). Shortly, in order to monitor the binding event, FITC‐labelled peptides were used (excitation 495 nm, emission: 535 nm) and the FP signal was recorded in mP on a SpectraMax iD5 Multi‐Mode Microplate Reader (Molecular Devices) by measuring the emitted light in two angels. The measurements were performed at room temperature and prepared in nonbinding black half area 96‐well microplates (Corning®; 50 μl/well). For measuring direct binding, that is saturation curves, a 1:1 dilution series of protein domain (25 μl/well) was generated in 50 mM sodium phosphate buffer pH 7.4 and the measurement performed with 5 nM FITC‐labelled peptide (25 μl/well). The buffer‐corrected values were subsequently plotted with PRISM and fitted to the quadratic equation (Gianni et al, [2005]).
(§2) The 1:1 dilution series in this experiment was performed with the unlabelled peptide in 50 mM sodium phosphate buffer pH 7.4, so that each well‐contained unlabelled peptide (25 μl) at a certain concentration and pre‐formed complex (25 μl). The KD values of this indirectly monitored binding event were calculated as described previously (Nikolovska‐Coleska et al, [2004]). All measurements were at least in technical triplicates as well as biological duplicates when indicated. An amplitude shift between repeat measurements in the displacement experiments was occasionally observed due to variations in the protein preparations. If that was the case, the “active” protein concentration was back‐calculated according to the quadratic equation from the saturation curves performed in parallel. By comparing the active protein concentrations in the complex between different protein preparations, the amplitude was normalised.

[2] = target: T2, KPNA4 ARM Major (Homo sapiens, UniProt O00629); assay: FP displacement assay, KPNA4 ARM major pocket; conditions: major pocket probe FITC-MYC 5 nM, 50 mM sodium phosphate pH 7.4, room temperature, at least three technical replicates, read-out: KD values ± SEM
T2 construct: 60-487; GST (cleaved yes); made in house; host or cells: Escherichia coli BL21-Gold(DE3)
T2 sequence (O00629 60-487): as above
Description: as §1, §2

[3] = target: T3, MAP1LC3B (Homo sapiens, UniProt Q9GZQ8); assay: FP displacement assay, MAP1LC3B; conditions: read-out: KD values ± SEM
T3 construct: GST (cleaved yes); made in house; host or cells: Escherichia coli BL21-Gold(DE3)
Description: as §1, §2

[4] = target: T4, GABARAPL2 (Homo sapiens, UniProt P60520); assay: FP displacement assay, GABARAPL2; conditions: read-out: KD values ± SEM
T4 construct: GABARAPL2_ATG8__P60520_2_115; GST (cleaved yes); made in house; host or cells: Escherichia coli BL21-Gold(DE3)
T4 sequence (P60520 2-115): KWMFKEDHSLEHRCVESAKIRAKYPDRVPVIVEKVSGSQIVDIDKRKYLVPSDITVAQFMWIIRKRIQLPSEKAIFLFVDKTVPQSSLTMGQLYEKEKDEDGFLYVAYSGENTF
Description: as §1, §2

[5] = target: T5, MAP1LC3B ATG8 (Homo sapiens, UniProt Q9GZQ8); assay: ITC, MAP1LC3B ATG8; conditions: for Kd: ITC (iTC200), 50 mM sodium phosphate pH 7.4, 1 mM DTT, average of the runs, at least technical triplicates
T5 construct: MAP1LC3B ATG8; made in house; host or cells: Escherichia coli BL21-Gold(DE3)

[6] = ITC single run: date 200402, injection 1
[7] = ITC single run: date 200402, injection 2
[8] = ITC single run: date 200402, injection 3

Row | Compound | Kd [1] [µM] | Kd [2] [µM] | Kd [3] [µM] | Kd [4] [µM] | Kd [5] [µM] | Ka [5, 6] | Ka [5, 7] | Ka [5, 8] | Ka ([5]; ITC single run: date 2101 new, injection 1)
1 | CC(=O)N[C@@H](CC(=O)O)C(=O)N[C@H](C(=O)N[C@@H](CCC(=O)O)C(=O)N[C@@H](Cc1c[nH]cn1)C(=O)NCC(=O)NCC(=O)N[C@@H](CCCCN)C(=O)N[C@@H](CCCNC(=N)N)C(=O)N[C@@H](COP(=O)(O)O)C(=O)N[C@@H](CCCNC(=N)N)C(=O)N[C@@H](CC(C)C)C(=O)N[C@H](C(=O)N1CCC[C@H]1C(=O)N[C@H](C(=O)N[C@@H](CO)C(=O)N[C@@H](Cc1ccc(O)cc1)C(N)=O)C(C)C)[C@@H](C)O)C(C)C [SQSTM1_258–272 pS] (Ac-DVEHGGKR[pS]RLTPVSY-NH2) | 248 ± 3 | 50 ± 7 |  |  |  |  |  |  | 
2 | CC(=O)N[C@@H](CC(=O)O)C(=O)N[C@H](C(=O)N[C@@H](CCC(=O)O)C(=O)N[C@@H](Cc1c[nH]cn1)C(=O)NCC(=O)NCC(=O)N[C@@H](CCCCN)C(=O)N[C@@H](CCCNC(=N)N)C(=O)N[C@@H](CO)C(=O)N[C@@H](CCCNC(=N)N)C(=O)N[C@@H](CC(C)C)C(=O)N[C@H](C(=O)N1CCC[C@H]1C(=O)N[C@H](C(=O)N[C@@H](CO)C(=O)N[C@@H](Cc1ccc(O)cc1)C(N)=O)C(C)C)[C@@H](C)O)C(C)C [SQSTM1_258–272 wt] (Ac-DVEHGGKRSRLTPVSY-NH2) | 14 ± 0.7 | 0.24 ± 0.04 |  |  |  |  |  |  | 
3 | CC(=O)N[C@@H](CC(C)C)C(=O)N[C@@H](CCC(=O)O)C(=O)N[C@@H](CC(=O)O)C(=O)N[C@@H](CC(=O)O)C(=O)N[C@@H](CCC(=O)O)C(=O)N[C@@H](CCC(N)=O)C(=O)N[C@@H](Cc1ccccc1)C(=O)N[C@H](C(=O)N[C@@H](COP(=O)(O)O)C(=O)N[C@@H](CC(C)C)C(=O)N[C@@H](Cc1ccc(O)cc1)C(=O)NCC(=O)N[C@H](C(=O)N[C@@H](CCC(=O)O)C(=O)N[C@@H](CCC(=O)O)C(=O)N[C@@H](Cc1ccc(O)cc1)C(N)=O)[C@@H](C)O)C(C)C [TBK1_164–179 pS] |  |  | 1.3 ± 0.3 | 2.8 ± 0.6 | 2.67 | 270000 | 480000 | 520000 | 
4 | CC(=O)N[C@@H](CC(C)C)C(=O)N[C@@H](CCC(=O)O)C(=O)N[C@@H](CC(=O)O)C(=O)N[C@@H](CC(=O)O)C(=O)N[C@@H](CCC(=O)O)C(=O)N[C@@H](CCC(N)=O)C(=O)N[C@@H](Cc1ccccc1)C(=O)N[C@H](C(=O)N[C@@H](CO)C(=O)N[C@@H](CC(C)C)C(=O)N[C@@H](Cc1ccc(O)cc1)C(=O)NCC(=O)N[C@H](C(=O)N[C@@H](CCC(=O)O)C(=O)N[C@@H](CCC(=O)O)C(=O)N[C@@H](Cc1ccc(O)cc1)C(N)=O)[C@@H](C)O)C(C)C [TBK1_164–179 wt] |  |  | 10.5 ± 0.1 | 19 ± 4 | 8 | 143000 | 170000 | 144000 | 84300
5 | CC(=O)N[C@@H](CCC(N)=O)C(=O)N[C@@H](CC(N)=O)C(=O)N[C@@H](CC(C)C)C(=O)N[C@@H](CO)C(=O)N[C@@H](CCCNC(=N)N)C(=O)N[C@@H](COP(=O)(O)O)C(=O)N[C@@H](Cc1c[nH]c2ccccc12)C(=O)N[C@@H](Cc1c[nH]cn1)C(=O)N[C@@H](CC(=O)O)C(=O)N[C@H](C(=O)N[C@@H](CCC(N)=O)C(=O)N[C@H](C(=O)N[C@@H](CO)C(=O)N[C@@H](CO)C(=O)N[C@@H](C)C(=O)N[C@@H](Cc1ccc(O)cc1)C(N)=O)C(C)C)C(C)C [TPD52L2_91–106 pS] |  |  | 61 ± 2 |  |  |  |  |  | 
6 | CC(=O)N[C@@H](CCC(N)=O)C(=O)N[C@@H](CC(N)=O)C(=O)N[C@@H](CC(C)C)C(=O)N[C@@H](CO)C(=O)N[C@@H](CCCNC(=N)N)C(=O)N[C@@H](CO)C(=O)N[C@@H](Cc1c[nH]c2ccccc12)C(=O)N[C@@H](Cc1c[nH]cn1)C(=O)N[C@@H](CC(=O)O)C(=O)N[C@H](C(=O)N[C@@H](CCC(N)=O)C(=O)N[C@H](C(=O)N[C@@H](CO)C(=O)N[C@@H](CO)C(=O)N[C@@H](C)C(=O)N[C@@H](Cc1ccc(O)cc1)C(N)=O)C(C)C)C(C)C [TPD52L2_91–106 wt] |  |  | 760 ± 150 |  |  |  |  |  | 
